Earlier results on one compound are cited in patent US20150258085A1, “Treating Tumors of the Central Nervous System” (THE REGENTS OF THE UNIVERSITY OF CALIFORNIA, priority 2012, published 2015).

The test system of the data set is newly diagnosed glioblastoma. As to conditions: systemic irinotecan plus TMZ versus TMZ alone.

For `CCc1c2c(nc3ccc(OC(=O)N4CCC(N5CCCCC5)CC4)cc13)-c1cc3c(c(=O)n1C2)COC(=O)[C@]3(O)CC` [irinotecan], the clinical outcome is “comparable to TMZ alone”; the toxicity / tolerability entry was “more toxic and poorly tolerated”.
